For assay [1], the system named is HMT-3522 S1 mammary epithelial cells acini. Nature of the assay: Radial profile (RP) analysis of ZO-1 distribution in acini. The class given is cell-based. As for the experimental part:
The concept of radial profile (RP) analysis of epithelial polarity was tested. A macro script and two plugins for the open image analysis software ImageJ (imagej.nih.gov/ij/) were developed. Subsequently, computer code was translated for the MATLAB® computing platform and improvements were made. This new code is referred to as the RadialProfiler algorithm. MATLAB® is a more robust and versatile computing platform that allows important improvement to the approach. In particular, MATLAB® can easily process entire image folders in batch using looping functions. Batch processing has been included in the new MATLAB® version of the RP analysis that enables automated analyses of series of images. The code was designed to analyze two-channel fluorescence microscopy images. The first channel corresponds to DAPI staining of cell nuclei, whereas the second channel corresponds to an apical polarity marker (e.g., ZO-1, Par3, or actin) detected by immunofluorescence. […] Initially, two plugins were developed to compare two approaches to quantify apical polarity: (1) an analysis of the RP distribution of the signals and (2) the computation of the moment of inertia (MOI). […]
Fluorescent signals of polarity markers in 3D cell cultures were scored visually for apical localization using an Olympus IX83 epifluorescence microscope equipped with a 60× oil immersion objective (NA=1.35). […]

Assay [2] shares this test system. Nature of the assay: Visual scoring of apical polarity markers in 3D acini cultures (conventional methods). Format: cell-based. Particulars: elevated levels of leptin; measured with conventional methods (Tenvooren et al.). From the text: Non-neoplastic HMT-3522 S1 mammary epithelial cells were obtained from Dr. Mina Bissell (Lawrence Berkeley Laboratory) and propagated between passages 54 and 60 in H14 medium. Acinar differentiation was achieved by culturing the cells in 3D on top of a layer of Matrigel matrix (Corning) in chambered slides (Millipore), as described (10).
Fluorescent signals of polarity markers in 3D cell cultures were scored visually for apical localization using an Olympus IX83 epifluorescence microscope equipped with a 60× oil immersion objective (NA=1.35). At least 100 acini were scored per condition in each experiment. Alternatively, fluorescence images were taken with the CMOS camera (Hamamatsu, ORCA-Flash4.0) on this microscope, using a 10× (NA=0.3) objective. The ImageJ script was used to extract acini from DAPI images and to calculate the radial distribution of the signals. 150-450 acini were analyzed per condition.

Assay [3] relates to live S1 cell acini. The assay is described as follows: Live cell imaging of acini stained with SiR-actin. Particulars: leptin treatment as in EXAMPLE 3. Format: cell-based. From the text:
RadialProfiler can be applied to quantify epithelial markers detected by immunofluorescence (as described in Tenvooren et al., Oncogene (2019)), or to quantify cortical actin labeled in live acini with the SiR-actin dye (Cytoskeleton Inc.). DAPI and Hoechst are used to counterstain cell nuclei in fixed and live experiments, respectively.
For imaging, an automated IX83 microscope (Olympus) equipped with a motorized ultrasonic stage and a TruFocus Z drift compensation module was used. For RadialProfiler analyses, images are taken with either 10× (NA=0.3) or 20× (NA=0.45) air lenses, using a sCMOS camera (ORCA-Flash4.0, Hamamatsu). The RadialProfiler software was also tested with images acquired using different imaging systems, including a high content imager (Perkin Elmer Operetta CLS). RadialProfiler and the underlying approach to analyze polarity are agnostic to the imaging system. Fields of view are chosen either in an automated fashion or based on nuclear signals (DAPI or Hoechst) to avoid bias. For live cell analyses, acini are maintained at 37° C. and 5% CO2 using a stage-top incubator (Tokai Hit). The minimal resolution needed depends on the number of radial terraces used by RadialProfiler. […] It was determined that using 5-10 bins that are 2 pixels wide yields accurate measurements. […]

Assay [4] has as its system mammary epithelial cell line stably expressing GFP-ZO-1. The assay is described as follows: Live cell imaging of GFP-ZO-1 mammary epithelial cell line. Format: cell-based. Conditions: leptin treatment. From the text: Immunostaining techniques have certain limitations, including (1) time consumption, (2) costs of reagents, and (3) poor time resolution. An alternative approach has been developed based on live cell imaging. Immunostaining for polarity markers is replaced by expression of polarity marker proteins tagged with a fluorescent protein (e.g., GFP-ZO-1). A mammary epithelial cell line stably expressing GFP-ZO-1 has been generated and characterized (FIGS. 9A-9B). The cell line retains apical-basal polarity (which is disturbed by leptin treatment) and expresses the recombinant marker at physiological levels. As a more flexible alternative to genetically encoded fluorescent markers of polarity, a nontoxic actin dye compatible with live cell imaging (SiR-actin) has been used. Cells are stained for 1 h with a mix of SiR-actin and Hoechst (DNA dye) before imaging. Similar results were obtained with this approach compared to the fixed, immunostaining approach described in EXAMPLE 1.

In assay [5] the test system is apical polarity. Particulars: Yue et al., Biophys. J. 102:1215 (2012); cited from earlier work.

As to leptin, the “averaged RP curves and integrated values (ZO-1 radial distribution)” value in assay [1] (acini treated 72 h with vehicle or leptin (100 ng/ml), FIG. 8C, P<0.0001) is on record as “distinct for the two treatments”. Further, in assay [2], the apical polarity result is given as “loss of apical polarity”. Also, the “apical SiR-actin signal” value in assay [3] is listed as “loss of apical SiR-actin signal”. Moreover, the “apical-basal polarity of GFP-ZO-1 cell line” value in assay [4] is “disturbed”.

On to “lipopolysaccharide [LPS, reference compound]”, for which, in assay [1] (breast acini exposed to LPS, FIG. 8F), the polarity score entry was “decrease in the polarity score”.

In the case of omega-6 fatty acids, the apical polarity entry in assay [5] is on record as “disrupted”.

The record behind these values is patent US20190353644A1, “PROFILE ANALYSIS OF CELL POLARITY” (Wake Forest University Health Sciences, priority 2018, published 2019).
